From patent US12178842B2, “PCSK9 antagonist compounds” (MERCK SHARP & DOHME LLC, priority 2019, dated 2024)
pKi: −log10 of the molar value.

Key:
Type in all cases: binding
PCSK9 [1] = target: T1, PCSK9 (Homo sapiens, UniProt Q8NBP7); test: PCSK9 Alexa FRET Standard TR-FRET assay; conditions: Ki calculated from IC50 and KD of AF cyclic peptide Reagent A; 0.5 nM PCSK9, 20 nM AF cyclic peptide; read-out: Alexa FRET Stdt TR-FRET
T1 construct: biotin (biotinylated); purchased
Procedure: A solution containing 1 nM biotinylated PCSK9+2.5 nM Lance Streptavidin Europium (Strep-Eu) is made in 50 mM HEPES pH 7.4, 0.15 M NaCl, 5 mM CaCl2, 0.01% BSA, and 0.01% Surfactant P20. A separate solution containing 40 nM of the AlexaFluor tagged cyclic peptide is made in the same buffer system. An Echo is used to transfer 0.750 ul of compound to an assay plate followed by the addition of 15 ul of PCSK9+Stept-Eu and 15 ul of AF peptide. The final assay volume is 30.750 ul containing 0.5 nM PCSK9, 1.25 nM Strep-Eu, and 20 nM AF cyclic peptide. The reaction is incubated at room temperature for at least two hours prior to fluorescence measurements using an Envision Multilabel Reader. IC50 values are determined by fitting data to a sigmoidal dose-response curve using nonlinear regression. Ki is then calculated from the Ic50 and the KD of AF cyclic peptide. Counts (B-counts) of the europium-labeled PCSK9 are followed to observe if compounds are adversely PCSK9. A fall off of the B-counts likely indicates a false positive of inhibition. Data from this procedure is reported as “A=‘numerical value’ (nanomolar)”

PCSK9 [2] = target: T1, PCSK9; test: PCSK9 Alexa FRET Plus TR-FRET assay
Procedure: A separate solution containing 1920 nM of the AlexaFluor tagged cyclic peptide is made in the same buffer system. […] The reaction is incubated at room temperature for at least two hours prior to fluorescence measurements using an Envision Multilabel Reader. IC50 values are determined by fitting data to a sigmoidal dose-response curve using nonlinear regression. Ki is then calculated from the Ic50 and the KD of AF cyclic peptide. Counts (B-counts) of the europium-labeled PCSK9 are followed to observe if compounds are adversely affecting PCSK9. A fall off of the B-counts is likely indicates a false positive of inhibition. Data from this procedure is reported as “P=‘numerical value’ (nanomolar)”

PCSK9 [3] = target: T1, PCSK9; test: PCSK9 Alexa FRET Ultra TR-FRET assay
Procedure: A separate solution containing 1920 nM of the AlexaFluor tagged cyclic peptide is made in the same buffer system. […] The reaction is incubated at room temperature for at least two hours prior to fluorescence measurements using an Envision Multilabel Reader. IC50 values are determined by fitting data to a sigmoidal dose-response curve using nonlinear regression. Ki is then calculated from the Ic50 and the KD of AF cyclic peptide. Counts (B-counts) of the europium-labeled PCSK9 are followed to observe if compounds are adversely affecting PCSK9. A fall off of the B-counts is likely indicates a false positive of inhibition. Data from this procedure is reported as “Ki Ultra=‘numerical value’ (data reported is nanomolar)”

T1 sequence (Q8NBP7 153-692): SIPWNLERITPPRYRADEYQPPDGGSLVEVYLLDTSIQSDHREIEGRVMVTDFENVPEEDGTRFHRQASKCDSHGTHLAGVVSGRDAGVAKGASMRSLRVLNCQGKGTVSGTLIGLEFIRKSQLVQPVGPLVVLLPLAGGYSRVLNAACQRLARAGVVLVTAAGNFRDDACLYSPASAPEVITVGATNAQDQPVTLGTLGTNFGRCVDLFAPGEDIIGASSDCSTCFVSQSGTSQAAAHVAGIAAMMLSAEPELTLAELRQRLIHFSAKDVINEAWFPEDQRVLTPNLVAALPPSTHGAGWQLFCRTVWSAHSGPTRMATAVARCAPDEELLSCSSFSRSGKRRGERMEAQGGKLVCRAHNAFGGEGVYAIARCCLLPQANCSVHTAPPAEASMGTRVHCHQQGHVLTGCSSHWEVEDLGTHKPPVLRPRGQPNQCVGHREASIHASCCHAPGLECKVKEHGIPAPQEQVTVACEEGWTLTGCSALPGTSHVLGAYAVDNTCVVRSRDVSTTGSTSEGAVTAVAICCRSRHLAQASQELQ

SMILES | pKi (PCSK9 [1]) | pKi (PCSK9 [2]) | pKi (PCSK9 [3])
COc1ccc(C[C@@H]2NC(=O)[C@H]([C@@H](C)O)NC(=O)[C@@H]3[C@@H]4CCN3C(=O)[C@@H]3Cc5cn(c6ccc(F)cc56)CCCCCCN(Cc5ccc(cc5)CCNC(=O)[C@]5(C)CCCN5C2=O)C(=O)CCC(=O)N[C@@H](C)C(=O)N[C@H](CNC(=O)COCCOCCNC(=O)COCCOCCNC(=O)CC[C@H](NC(=O)CCCCC[N+](C)(C)CCNC(=O)CCCCCCCCCCCCCCCCC(=O)O)C(=O)O)C(=O)N[C@@H](Cc2cccc(c2)CNC(=O)CO4)C(=O)N3)cc1 [Ex-5] | > 8.90 | > 11.22 | 11.15
COc1ccc(C[C@@H]2NC(=O)[C@H]([C@@H](C)O)NC(=O)[C@@H]3[C@@H]4CCN3C(=O)[C@@H]3Cc5cn(c6ccc(F)cc56)CCCCCCN(Cc5ccc(cc5)CCNC(=O)[C@]5(C)CCCN5C2=O)C(=O)CCC(=O)N[C@@H](C)C(=O)N[C@H](CNC(=O)COCCOCCNC(=O)CCCCC[N+](C)(C)CCNC(=O)COCCOCCNC(=O)COCCOCCNC(=O)CC[C@H](NC(=O)CCCCCCCCCCCCCCCCC(=O)O)C(=O)O)C(=O)N[C@@H](Cc2cccc(c2)CNC(=O)CO4)C(=O)N3)cc1 [Ex-6] | > 8.90 | 11.05 | 10.92
COc1ccc(C[C@@H]2NC(=O)[C@H]([C@@H](C)O)NC(=O)[C@@H]3[C@@H]4CCN3C(=O)[C@@H]3Cc5cn(c6ccc(F)cc56)CCCCCCN(Cc5ccc(cc5)CCNC(=O)[C@]5(C)CCCN5C2=O)C(=O)CCC(=O)N[C@@H](C)C(=O)N[C@H](CNC(=O)CCOCCOCC[N+](C)(C)CCNC(=O)CC[C@H](NC(=O)CCCCCCCCCCCCCCCCC(=O)O)C(=O)O)C(=O)N[C@@H](Cc2cccc(c2)CNC(=O)CO4)C(=O)N3)cc1 [Ex-7] | > 8.90 | 11.10 | 10.89
COc1ccc(C[C@@H]2NC(=O)[C@H]([C@@H](C)O)NC(=O)[C@@H]3[C@@H]4CCN3C(=O)[C@@H]3Cc5cn(c6ccc(F)cc56)CCCCCCN(Cc5ccc(cc5)CCNC(=O)[C@]5(C)CCCN5C2=O)C(=O)CCC(=O)N[C@@H](C)C(=O)N[C@H](CNC(=O)CC[C@H](NC(=O)CCOCCOCC[N+](C)(C)CCNC(=O)COCCOCCNC(=O)COCCOCCNC(=O)CC[C@H](NC(=O)CCCCCCCCCCCCCCCCC(=O)O)C(=O)O)C(=O)O)C(=O)N[C@@H](Cc2cccc(c2)CNC(=O)CO4)C(=O)N3)cc1 [Ex-8] | > 8.90 | 10.80 | 11.10
COc1ccc(C[C@@H]2NC(=O)[C@H]([C@@H](C)O)NC(=O)[C@@H]3[C@@H]4CCN3C(=O)[C@@H]3Cc5cn(c6ccc(F)cc56)CCCCCCN(Cc5ccc(cc5)CCNC(=O)[C@]5(C)CCCN5C2=O)C(=O)CCC(=O)N[C@@H](C)C(=O)N[C@H](CNC(=O)COCCOCCNC(=O)COCCOCCNC(=O)CC[C@H](NC(=O)CC[C@H](NC(=O)CCOCCOCC[N+](C)(C)CCNC(=O)CCCCCCCCCCCCCCCCC(=O)O)C(=O)O)C(=O)O)C(=O)N[C@@H](Cc2cccc(c2)CNC(=O)CO4)C(=O)N3)cc1 [Ex-9] | > 8.90 | > 11.22 | 11.15
COc1ccc(C[C@@H]2NC(=O)[C@H]([C@@H](C)O)NC(=O)[C@@H]3[C@@H]4CCN3C(=O)[C@@H]3Cc5cn(c6ccc(F)cc56)CCCCCCN(Cc5ccc(cc5)CCNC(=O)[C@]5(C)CCCN5C2=O)C(=O)CCC(=O)N[C@@H](C)C(=O)N[C@H](CNC(=O)CCOCCOCC[N+](C)(C)CCNC(=O)COCCOCCNC(=O)COCCOCCNC(=O)CC[C@H](NC(=O)CC[C@H](NC(=O)CCCCCCCCCCCCCCCCC(=O)O)C(=O)O)C(=O)O)C(=O)N[C@@H](Cc2cccc(c2)CNC(=O)CO4)C(=O)N3)cc1 [Ex-10] | > 8.90 | 11.10 | 11.22
